In PMC5788402, “Impact of Target Warhead and Linkage Vector on Inducing Protein Degradation: Comparison of Bromodomain and Extra-Terminal (BET) Degraders Derived from Triazolodiazepine (JQ1) and Tetrahydroquinoline (I-BET726) BET Inhibitor Scaffolds” (Journal of Medicinal Chemistry, 2017):
Like-named read-outs stand apart in the source and are kept apart here.

Columns and labels:
Brd4 = molecular target: T1, Brd4 (Homo sapiens, UniProt O60885); experiment: Brd4 depletion in HL60 (immunoblot); assay type: cell-based
T1 construct: endogenous in cells; host or cells: MV4;11; HL60

Brd4 tandem bromodomain = settings: cited from earlier work

Row | Structure (SMILES) | Brd4 depletion (%) HL60 (Brd4; 50 nM, 4 h, HL60) | Kd (Brd4 tandem bromodomain) | Brd4 depletion (%) HL60 (Brd4)
1 | CC(=O)N1c2ccc(-c3ccc(C(=O)O)cc3)cc2[C@H](Nc2ccc(Cl)cc2)C[C@@H]1C [compound 4] | –157% | 4 nM | –
2 | Cc1sc2c(c1C)C(c1ccc(Cl)cc1)=N[C@@H](CC(=O)OC(C)(C)C)c1nnc(C)n1-2 [compound 3] | – | – | –243/20%
